Values joined by “and” are separate entries in the source; they are usually repeats but may differ in a detail not shown here. Equal values may be shown once.

Consider two molecules from US20050171030A1, “Relieving symptoms of erectile dysfunction and attaining sexual wellness and health of the sexual vascular system with proanthocyanidins” (priority 2000, published 2005).

Experiment [1] deals with men with testosterone levels below normal. Briefly: Example 2: 12-month treatment of 50 men with testosterone levels below normal and secondary infertility; Global efficacy questionnaire on erection. The format is in vivo, human. The settings on record: after 1 month treatment with L-arginine (only). How it is done: In the department of Dr. Stanislavov and Dr. Nikolova 50 men aged between 45-60 with testosterone levels below normal were treated daily with • Pycnogenol® 120 mg • L-arginine (Sargenor) 1.71 g • Testosterone undecanoate 120 mg • over a period of 12 months because of secondary infertility.

Experiment [2] relates to men with erectile dysfunction. Briefly: Clinical study of arginine aspartate (Sargenor) alone and with Pycnogenol in 40 men with erectile dysfunction. The format is in vivo, human. How it is done: A clinical study was conducted on forty participants who had erectile dysfunction. The study involved the effect of taking arginine asparatate, which is a salt of arginine with aspartic acid. One gram of arginine asparatate contains 566.85 mg of arginine.
The participants were grouped according to their variant of disturbed erection. The variants are in five categories: weakened, delayed, hesitating, losing and normal. The “weakened” variant signifies that the penis increases in size and becomes hard to a certain extent, but it is not enough to enter the vagina. The “delayed” variant signifies that if it is possible for the penis to become hard enough to enter the vagina, but such may require additional time. The “hesitating” variant signifies that before or after sexual contact, the erection is unstable and thus makes the sexual intercourse more difficult. The “losing” variant signifies that during the love game there is good erection, but such is lost when trying to make contact or during intercourse. The “normal” variant signifies that no appreciable disturbed erection was present.
The clinical study was over three months. During the first month, only 3 doses of 1000 milligrams (mg) of arginine asparatate (Sargenor) were administered daily to each participant. By the end of the first month, there was improvement in erectile dysfunction in about 10% of the participants. During the second month, 2 doses of 40 mg of Pycnogenol® food supplement were administered daily to each participant, together with the 3 doses of 1000 mg of arginine asparatate. By the end of the second month, there was a statistically significant improvement of erectile dysfunction in 80% of the participants. During the third month, 3 doses of 40 mg of Pycnogenol® food supplement were administered daily to each participant, together with the 3 doses of 1000 mg of arginine asparatate. By the end of the third month, there was further improvement of the erectile dysfunction condition even for some of the participants who had not shown improvement during the second month. Overall, there was a statistically significant improvement of erectile dysfunction in 92% of the treated participants.
The following statistical analysis of the results from the clinical study calculate the probability of whether the observed differences between two treatments are statistically significant at a certain level.
Dr. Romil Stanislavov and V. Nikolova of The Seminological Laboratory SBALAG in Maichin Dom, Sofia, Bulgaria investigated the possibility to overcome erectile dysfunction by increasing the amounts of endogenous NO. For this purpose, Pycnogenol® pine bark extract as it is known to stimulate nitric oxide synthase was orally administered together with L-arginine as substrate for this enzyme.
The study included 40 men aged 25 to 45 years (mean age 36.6.+−.5.3 years) with confirmed functional erectile dysfunction of at least 3 months duration, who were unable to achieve adequate erection and rigidity sufficient for vaginal penetration and completion of successful intercourse after spontaneous sexual stimulation. All patients were required to be involved in a stable, monogamous relationship with a female partner for more than 6 months.
Exclusion criteria were severe cardiovascular diseases, hypertension, renal failure, hepatic insufficiency, endocrine abnormalities, and psychiatric disorders. Patients were also excluded if they were currently or recently treated for erectile dysfunction by vasoactive medications, surgery, or any mechanical device. Concomitant use of other therapies for erectile dysfunction were not allowed. The study was approved by the Ethics Committee of Medical Research Board of the University Clinic of Sofia, Bulgaria and written consent was obtained from each participant. […]

Another experiment relates to postmenopausal women. The settings on record: taken together with supplemental hormones; 202 postmenopausal women; cited from earlier work.
Setting [3] is: after 1 month, arginine aspartate (Sargenor) 3 x 1000 mg daily only, 40 patients.

With L-arginine aspartate [Sargenor], in experiment [1], the “Assessment of erection: Disturbed (weakened, delayed, hesitating, loosing), number of patients” value is recorded as 42; the “Assessment of erection: Disturbed (weakened, delayed, hesitating, loosing), percent of patients” value was found to be 84%; the “Assessment of erection: Normal, number of patients” value turned out to be 8; the “Assessment of erection: Normal, percent of patients” value came out at 16%. For the same molecule, in experiment [2] (Sargenor only, 1. month), the “Responders (restored erectile function), number of patients” value was 2 and the “Responders (restored erectile function), percent of patients” value is given as 5%. Moreover, in experiment [2] (setting [3]), the “Normal erection, D (percent distribution)” value stood at 5%; the “Normal erection, n (number of patients)” value is recorded as 2; the “Variant of disturbed erection: Delayed, D (percent distribution)” value was 25%; the “Variant of disturbed erection: Delayed, n (number of patients)” value was 10. Also, in experiment [2] (setting [3]), the “Variant of disturbed erection: Hesitating, D (percent distribution)” value is recorded as 10%; the “Variant of disturbed erection: Hesitating, n (number of patients)” value was found to be 4; the “Variant of disturbed erection: Losing, D (percent distribution)” value worked out at 10%; the “Variant of disturbed erection: Losing, n (number of patients)” value was found to be 4. In addition, in experiment [2] (setting [3]), the “Variant of disturbed erection: Weakened, D (percent distribution)” value was found to be 50% and the “Variant of disturbed erection: Weakened, n (number of patients)” value turned out to be 20. In experiment [2] (end of first month, 3 doses of 1000 mg arginine asparatate daily only), the “Participants with improvement in erectile dysfunction” value was “about 10%”. In addition, in experiment [2] (mean (SEM), responders, Sargenor only, 1. month), the “Mean time of duration (of the erection)” value was determined as 2 ± 1 min. The “Mean time until response emerges” value in experiment [2] (mean (SEM), responders, spontaneous sexual stimulation, Sargenor only, 1. month) is 10 min and 10 ± 2 min.
Consider `CCCc1nn(C)c2c(=O)[nH]c(-c3cc(S(=O)(=O)N4CCN(C)CC4)ccc3OCC)nc12` [sildenafil], for which the “Women reporting improved genital sensations” value in the experiment with postmenopausal women is 57%.
